# Laboratory results taken from publication PMC12108757, “Discovery and Characterisation of Novel Poly-Histidine-Poly-Glycine Peptides as Matrix Metalloproteinase Inhibitors” (Biomolecules, 2025).
# Tests used:
# [1] = Circular dichroism (CD) analysis; format: physicochemical; conditions: 0.2 mM, 20 °C, CDNN software
# Procedure: The synthetic pHpGs (0.2 mM) were analysed by CD spectroscopy to identify the secondary microstructure, respectively. Settings: scanning range of 180–260 nm, speed of 50 nm·min^−1, bandwidth of 1 nm, and a response time of 0.5 s. Secondary structure proportions (α-helices, β-sheets, β-turns, and random coils) were analysed via CDNN v2.1 software (Applied Photophysics Ltd., Leatherhead, UK).
# [2] = UV-Vis spectroscopy of pHpGs and zinc–pHpG complexes; format: physicochemical; conditions: 0.1 mM, 200–300 nm, room temperature; for UV–visible wavelength, zinc–pHpG complex: Zn^2+ complex; for UV–visible wavelength, peptide before zinc binding: peptide alone
# Procedure: Ultraviolet–visible (UV–Vis) spectrum of pHpGs and zinc–pHpG complexes (0.1 mM) were recorded using a Shimadzu UV-2450 spectrophotometer (Shimadzu Corporation, Kyoto, Japan) in the wavelength range of 200–300 nm at room temperature.
# human MMP-1 = assay: MMP-1 proteinase inhibition assay (time-dependent β-casein degradation, SDS-PAGE); format: biochemical; conditions: for catalytic suppression of MMP-1: proteinase inhibition assay, summary in discussion; for inhibition of MMP-1 activity in hydrolysing β-casein: 0–24 h, MMP-1 pre-incubated with peptide (1:25 molar ratio), sodium phosphate buffer pH 6.5, 37 °C, 12% SDS-PAGE, Coomassie
# Procedure: Proteolytic activity was assessed using β-casein (0.08 mM) as a substrate in a time-course assay (0–24 h). Enzymatic reactions were initiated by pre-incubating human MMP-1 with synthetic pHpG peptides (1:25 molar ratio) in a sodium phosphate buffer (pH 6.5) at 37 °C for 30 min. The recombinant human MMP-1 protein (rhMMP-1; ≥95% purity), obtained from MedChemExpress (Monmouth Junction, NJ, USA), was expressed in HEK293 cells as an unglycosylated form with a determined molecular weight of 49–61 kDa. The latent proenzyme requires activation via incubation with 1 mM aminophenylmercuric acetate at 37 °C for 2 h to generate the catalytically active form. Reactions were quenched with 5 mM EDTA at designated intervals, followed by electrophoretic separation on 12% SDS-PAGE and Coomassie staining. The negative control was β-casein in the absence of enzymatic catalysis, while water served as a system blank to monitor background interference.
# HUVECs [3] = assay: Trans-well migration assay; format: cell-based, human; conditions: 10% FBS, hVEGF165 25 ng/mL, 24 h, 37 °C; 3.125–25 μM
# Procedure: HUVECs (2 × 10^5 cells) were seeded in the upper chamber of a modified Boyden chamber system (BD Sciences, Milpitas, CA, USA). The lower chamber contained medium with 10% FBS, hVEGF165 (25 ng/mL), pHpG-H7 peptide (3.125 μM, 6.25 μM, 12.5 μM, 25 μM), or water. After 24 h incubation (37 °C, 5% CO2), migrated cells on the lower membrane surface were fixed, stained with Crystal Violet, and imaged. Cell migration was quantified using ImageJ software.
# HUVECs [4] = assay: Scratch wound healing assay; format: cell-based, human; conditions: hVEGF165 25 ng/mL stimulated, serum-free, 12 h, 37 °C; across all groups 3.125–25 μM
# Procedure: Human umbilical vein endothelial cells (HUVECs) were procured from the Shanghai Institute of Biochemistry and Cell Biology (Chinese Academy of Sciences, China). For the scratch wound healing assay, HUVECs were seeded in 24-well plates at a density of 1.2 × 10⁵ cells/well and cultured to form confluent monolayers. A linear wound was created by scraping with a sterile pipette tip. Serum-free Dulbecco’s modified Eagle medium containing 25 ng/mL of human vascular endothelial growth factor 165 (hVEGF165) was supplied, followed by the addition of either the pHpG-H7 peptide (3.125 μM, 6.25 μM, 12.5 μM, 25 μM) or water as a control. Cells were incubated for 12 h (37 °C, 5% CO2), and images were captured at 0 h (initial wound area) and 12 h. Wound healing was quantified using ImageJ 1.53t software, with a migration rate calculated as: Mobility (%) = (initial wound area–12 h residual area)/initial wound area × 100%.
# HUVECs [5] = assay: Tube formation assay (Matrigel); format: cell-based, human; conditions: hVEGF165-stimulated, 1% FBS, 8 h, 37 °C, 3.125–25 μM
# Procedure: Matrigel™ Basement Membrane Matrix (BD Bioscience, Franklin Lakes, NJ, USA) was added to a 96-well plate to a total volume of 60 μL per well and polymerised at 37 °C with 5% CO2 for 30 min to form a gel layer. HUVECs (2 × 10^4 cells/well) in the medium with 1% FBS were seeded. Different concentrations of pHpG-H7 peptide (3.125 μM, 6.25 μM, 12.5 μM, 25 μM) were added to each well and incubated for 8 h (37 °C, 5% CO2). Results were detected by phase-contrast microscope (Olympus, Tokyo, Japan) and photographed. At least three representative fields from each well were selected to count the number of branching points.
# [6] = system: venom-induced haemorrhage; conditions: ref [10]; cited from earlier work
# Source text: (§1) In the preceding investigation, we reported the presence of snake venom metalloproteinase in A. squamigera’s venom, which belongs to the Pep_M12B_propeptide family. […] This hypothesis is strongly supported by findings ...
# SVMP = conditions: ref [10]; cited from earlier work
# Source text: as §1
# metalloproteinase = conditions: ref [10]; cited from earlier work
# Procedure: Time-dependent β-casein degradation mediated by MMP-1 was analysed. In the absence of pHpG peptides, β-casein was progressively degraded and fully hydrolysed within 24 h (Figure 4A).
Sequence,Unorderd (random coil) [1] [%],α-Helix [1] [%],β-Strand [1] [%],β-Turn [1] [%],"UV–visible wavelength, zinc–pHpG complex [2] [nm]","UV–visible wavelength, peptide before zinc binding [2] [nm]",catalytic suppression of MMP-1 (human MMP-1),"inhibition of MMP-1 activity in hydrolysing β-casein (human MMP-1; β-casein 0.08 mM, 30 min)",HUVECs migration (HUVECs [3]),wound closure capability of HUVECs (HUVECs [4]),anti-angiogenesis effect (tube formation) (HUVECs [5]),"relative inhibitory effect on MMP-1 among the pHpG peptides (human MMP-1; comparison of pHpG-H5, pHpG-H7, pHpG-H9, β-casein, SDS-PAGE)","earliest time of suppression of MMP-1 activity (human MMP-1; β-casein 0.08 mM, pre-incubation 1:25 molar ratio, pH 6.5, 37 °C, 30 min, SDS-PAGE, 'as early as') [h]",venom-induced haemorrhage [6],SVMP activity (SVMP),metalloproteinase-mediated casein hydrolysis (metalloproteinase)
EDDHHHHHGVGGGGGGGGGG [pHpG-H5],29.2,12.1,40.6,21.6,216,214,potent catalytic suppression,significantly inhibited,,,,,,,,
EDDHHHHHHHGVGGGGGGGGGG [pHpG-H7],46.4,6.2,13.6,29.4,215,212,potent catalytic suppression,significantly inhibited,inhibited by pHpG-H7 in a dose-dependent manner,significantly impaired,anti-angiogenesis effects in a dose-dependent manner,most pronounced inhibitory effect,≤ 0.5,,,
"EDDHHHHHHHHHGVGGGGGGGGGG [pHpG-H9, Atheris pHpG-1 is equivalent to pHpG-H9, reference compound]",47.5,6.3,11.7,30.7,218,210,potent catalytic suppression,significantly inhibited,,,,,,alleviation of venom-induced haemorrhage,inhibition of SVMP activity,inhibits
